Test results published in publication PMC11842024, “Reversible male contraception by targeted inhibition of serine/threonine kinase 33” (Science (New York, N.Y.), 2024).
Like-named read-outs stand apart in the source and are kept apart here.

How the values were obtained:
CLK2 = CLK2 (Homo sapiens, UniProt P49760); assay: Z'-LYTE activity assay (ThermoFisher SelectScreen); assay type: biochemical; set-up: purchased SelectScreen Services (ThermoFisher); conditions: [ATP] = Kmapp
Excerpt: (§1) In vitro biochemical assays. Several small molecule assays were outsourced to SelectScreen Services (ThermoFisher) for STK33 and for off-target kinases (data sets are available on demand).
(§2) These assays are LanthaScreen (binding assay) and Z’-LYTE (activity assay). Dose-responses were done with at least 5 different concentrations in duplicates, and parameters were optimized by calculations described below and provided with standard errors. […]
(§3) Calculation of Ki values for kinase inhibitors from Z’-LYTE inhibition data. The Morrison equation with [ATP] = Kmapp for competitive inhibition (GraphPad Prism 7, San Diego, CA) was used to get Ki values. Since Kd and Ki values are defined the same way, in other words, Kd = [E] [I] / [EI] = Ki, Kd and Ki values can be compared. […]

CLK1 = CLK1 (Homo sapiens, UniProt P49759); assay: Z'-LYTE activity assay (ThermoFisher SelectScreen); assay type: biochemical; set-up: purchased SelectScreen Services (ThermoFisher); conditions: [ATP] = Kmapp
CLK1, sequence (P49759 whole entry): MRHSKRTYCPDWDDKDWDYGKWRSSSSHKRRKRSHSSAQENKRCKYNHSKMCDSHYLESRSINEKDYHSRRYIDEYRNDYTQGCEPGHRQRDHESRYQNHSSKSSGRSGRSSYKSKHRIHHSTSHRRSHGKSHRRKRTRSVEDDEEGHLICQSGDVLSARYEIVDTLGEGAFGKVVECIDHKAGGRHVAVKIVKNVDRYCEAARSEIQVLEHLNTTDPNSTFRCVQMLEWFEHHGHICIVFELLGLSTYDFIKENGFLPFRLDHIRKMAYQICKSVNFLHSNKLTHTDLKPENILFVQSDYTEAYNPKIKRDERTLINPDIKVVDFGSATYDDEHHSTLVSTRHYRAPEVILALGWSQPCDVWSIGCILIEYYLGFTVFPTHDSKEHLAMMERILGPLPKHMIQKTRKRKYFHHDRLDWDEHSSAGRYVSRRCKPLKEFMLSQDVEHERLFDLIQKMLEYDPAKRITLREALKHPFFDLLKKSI
Excerpt: as §1, §2, §3

RET = RET (Homo sapiens, UniProt P07949); assay: Z'-LYTE activity assay (ThermoFisher SelectScreen); assay type: biochemical; set-up: purchased SelectScreen Services (ThermoFisher); conditions: [ATP] = Kmapp
RET, sequence (P07949 29-1114): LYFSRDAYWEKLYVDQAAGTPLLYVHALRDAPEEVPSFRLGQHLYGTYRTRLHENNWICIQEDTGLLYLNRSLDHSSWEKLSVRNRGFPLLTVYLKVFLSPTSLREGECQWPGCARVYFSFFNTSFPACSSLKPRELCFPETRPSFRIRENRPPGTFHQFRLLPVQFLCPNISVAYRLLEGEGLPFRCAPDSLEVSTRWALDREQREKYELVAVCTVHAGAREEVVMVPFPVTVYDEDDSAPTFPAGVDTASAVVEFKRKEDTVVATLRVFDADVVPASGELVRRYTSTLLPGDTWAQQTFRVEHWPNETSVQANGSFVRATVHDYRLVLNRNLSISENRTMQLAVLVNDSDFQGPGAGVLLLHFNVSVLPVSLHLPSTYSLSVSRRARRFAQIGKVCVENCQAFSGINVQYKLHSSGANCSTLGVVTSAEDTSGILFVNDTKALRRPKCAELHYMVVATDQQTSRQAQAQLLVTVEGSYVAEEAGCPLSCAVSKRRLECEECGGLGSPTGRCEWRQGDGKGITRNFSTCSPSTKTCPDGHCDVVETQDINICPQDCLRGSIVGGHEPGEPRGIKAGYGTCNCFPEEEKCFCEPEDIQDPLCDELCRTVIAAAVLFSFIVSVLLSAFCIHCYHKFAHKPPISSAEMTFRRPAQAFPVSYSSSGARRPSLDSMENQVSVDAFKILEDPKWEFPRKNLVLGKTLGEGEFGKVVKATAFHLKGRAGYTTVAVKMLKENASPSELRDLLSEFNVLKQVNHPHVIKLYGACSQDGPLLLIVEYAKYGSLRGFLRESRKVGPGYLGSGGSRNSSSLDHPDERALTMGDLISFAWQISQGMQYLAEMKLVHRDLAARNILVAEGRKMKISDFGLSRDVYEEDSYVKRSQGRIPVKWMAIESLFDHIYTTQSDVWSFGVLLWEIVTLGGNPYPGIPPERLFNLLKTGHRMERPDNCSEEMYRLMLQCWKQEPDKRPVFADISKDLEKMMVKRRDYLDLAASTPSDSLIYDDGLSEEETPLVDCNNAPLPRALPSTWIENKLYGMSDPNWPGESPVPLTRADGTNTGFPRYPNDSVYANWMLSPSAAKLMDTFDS
Excerpt: as §1, §2, §3

CLK4 = CLK4 (Homo sapiens, UniProt Q9HAZ1); assay: LanthaScreen binding assay (ThermoFisher SelectScreen); set-up: purchased SelectScreen Services (ThermoFisher)
CLK4, sequence (Q9HAZ1 whole entry): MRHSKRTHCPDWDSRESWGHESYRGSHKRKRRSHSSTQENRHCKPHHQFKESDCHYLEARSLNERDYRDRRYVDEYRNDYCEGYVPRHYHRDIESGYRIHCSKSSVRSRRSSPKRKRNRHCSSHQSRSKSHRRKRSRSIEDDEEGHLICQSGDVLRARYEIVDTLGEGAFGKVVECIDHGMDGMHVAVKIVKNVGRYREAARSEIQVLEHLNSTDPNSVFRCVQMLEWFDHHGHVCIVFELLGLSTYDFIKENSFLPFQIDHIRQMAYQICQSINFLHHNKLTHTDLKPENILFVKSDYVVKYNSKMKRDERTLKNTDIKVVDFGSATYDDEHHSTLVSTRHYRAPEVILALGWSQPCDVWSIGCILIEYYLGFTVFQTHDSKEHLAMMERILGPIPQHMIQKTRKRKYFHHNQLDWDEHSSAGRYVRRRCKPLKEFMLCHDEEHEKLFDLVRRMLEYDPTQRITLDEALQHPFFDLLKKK
Excerpt: as §1
These assays are LanthaScreen (binding assay) and Z’-LYTE (activity assay). Dose-responses were done with at least 5 different concentrations in duplicates, and parameters were optimized by calculations described below and provided with standard errors.
Calculation of Kd values for kinase inhibitors that bind to the ATP pocket of a kinase from LanthaScreen binding data. DynaFit (71) was used to fit complex equilibria where a tracer is displaced by a dilution series of a kinase inhibitor. This method relies on the concentration of inhibitor, as well as the concentration of kinase and tracer, and Kd of the tracer. The latter three parameters are tabulated by ThermoFisher for each kinase in the LanthaScreen assay panel. […]

[1] = Pharmacokinetics (PK) of CDD-2807 in mice; assay type: in vivo; conditions: plasma; for AUC(0-inf) / AUC(0-t) / Cmax / Tmax / MRT inf / half-life: male, C57BL/6NJ, mouse; for MRT inf: read-out: MRT0-∞
Method: Pharmacokinetics (PK) of CDD-2807 in mice. The pharmacokinetic studies (72) of CDD-2807 were performed at three doses via intraperitoneal (i.p.) injection and oral (p.o.) administration.
CDD-2807 was dissolved in 10% Captisol containing 5% DMSO to prepare the solutions of 0.5 mg/mL, 2.5 mg/mL and 5.0 mg/mL. Twelve male mice (strain: C57BL/6NJ, 8−12 weeks) were divided equally and randomly into 4 groups (n = 3 for each dose). One group of mice were administered 5 mg/kg CDD-2807 (i.p., 10 µL/g of 0.5 mg/mL solution), the second group 25 mg/kg CDD-2807 (i.p., 10 µL/g of 2.5 mg/mL solution), the third group 5 mg/kg CDD-2807 (p.o., 10 µL/g of 0.5 mg/mL solution), and the fourth group 50 mg/kg CDD-2807 (p.o., 10 µL/g of 5.0 mg/mL solution). At 0, 5, 10, 15, 30 min, 1, 2, 4, 6, 8, 24 h post-dose, around 20 µL of blood was collected from the tail vein and anti-coagulated by heparin. The blood samples were centrifuged at 2000 g for 3 min at 4°C, and the plasma samples were transferred to tubes and stored at −80°C before analysis. All the samples were analyzed by the Thermo TSQ Quantis MS coupled with a Thermo Vanquish UHPLC (San Jose, CA). CDD-2807 was separated on a Luna C18 column (1 mm × 50 mm, 1.6 µm, Phenomenex, Torrance, CA), and eluted by a water-acetonitrile mobile phase system (both containing 0.1% formic acid, v/v) at the flow rate of 0.15 mL/min. CDD-2807 was monitored under the SRM mode coupled with a positive ESI source. The SRM ion pairs were 447→321 for CDD-2807. The ion spray voltage was set at 3500 V. High-purity nitrogen was used as the sheath gas (35 arbitrary unit), auxiliary gas (7 arbitrary unit), and high-purity argon was used as the collision gas. The temperatures of the ion transfer tube and the vaporizer were set at 300°C and 275°C, respectively. The concentration of CDD-2807 in plasma was quantified using individual calibration curves. The calibration curve was regressed with a weight of 1/x2 with high linearity (r2 >0.99). PK parameters, including half-time (t1/2), area under the plasma concentration– time curve from zero to infinity (AUC0–∞), clearance normalized by the bioavailability (CL/F), volume of distribution normalized by the bioavailability (Vd/F), and the mean residence time (MRT), were calculated by WinNonlin software (Certara, Princeton, NJ) by noncompartmental analysis. The plasma concentration–time curves were plotted in GraphPad Prism 9 (San Diego, […]

[2] = po, p.o. administration 5 mg/kg
[3] = po, p.o. administration 50 mg/kg

CLK2, sequence (P49760 whole entry): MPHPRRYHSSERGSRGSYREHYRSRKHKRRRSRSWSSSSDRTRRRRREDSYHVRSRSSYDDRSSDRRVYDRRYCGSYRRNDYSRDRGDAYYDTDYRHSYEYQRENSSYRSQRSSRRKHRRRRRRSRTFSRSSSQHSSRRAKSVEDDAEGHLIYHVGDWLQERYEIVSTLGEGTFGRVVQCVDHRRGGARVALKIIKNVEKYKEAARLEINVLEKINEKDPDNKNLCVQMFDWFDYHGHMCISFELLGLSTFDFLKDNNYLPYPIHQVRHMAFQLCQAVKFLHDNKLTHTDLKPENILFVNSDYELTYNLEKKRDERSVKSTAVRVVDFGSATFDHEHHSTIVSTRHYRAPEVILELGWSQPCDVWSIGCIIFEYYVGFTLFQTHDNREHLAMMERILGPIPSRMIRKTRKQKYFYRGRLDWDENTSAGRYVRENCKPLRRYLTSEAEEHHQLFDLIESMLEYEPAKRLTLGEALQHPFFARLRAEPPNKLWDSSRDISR

O=C(c1ccc2[nH]nc(C#Cc3ccccc3-c3ccccc3)c2c1)N1CC2(CCCNC2)C1 [CDD-2807]
Ki (CLK2): 1.3 nM
Ki (CLK1): 3.1 nM
Ki (RET): 0.3 nM
Kd (CLK4): 0.9 nM
AUC(0-inf) ([1]; ip, i.p. injection 5 mg/kg): 11.2 ± 1.11 µM·h
AUC(0-t) ([1]; ip, i.p. injection 5 mg/kg): 9.46 ± 1.47 µM·h
Cmax ([1]; ip, i.p. injection 5 mg/kg): 2950 ± 640 nM
Tmax ([1]; ip, i.p. injection 5 mg/kg): 19.8 ± 8.4 min
MRT inf ([1]; ip, i.p. injection 5 mg/kg): 11.1 ± 4.43 h
half-life ([1]; ip, i.p. injection 5 mg/kg, read-out: t1/2 (converted)): 714 ± 263 min
AUC(0-inf) ([1]; ip, i.p. injection 25 mg/kg): 67.7 ± 12.4 µM·h
AUC(0-t) ([1]; ip, i.p. injection 25 mg/kg): 55.5 ± 5.42 µM·h
Cmax ([1]; ip, i.p. injection 25 mg/kg): 11900 ± 400 nM
Tmax ([1]; ip, i.p. injection 25 mg/kg): 19.8 ± 8.4 min
MRT inf ([1]; ip, i.p. injection 25 mg/kg): 12.2 ± 3.8 h
half-life ([1]; ip, i.p. injection 25 mg/kg, read-out: t1/2 (converted)): 678 ± 205 min
half-life ([1]; ip, delivered intraperitoneally, read-out: plasma t1/2): > 660 min
AUC(0-inf) [1, 2]: 1.85 ± 0.66 µM·h
AUC(0-t) [1, 2]: 0.71 ± 0.07 µM·h
Cmax [1, 2]: 60 ± 20 nM
Tmax [1, 2]: 61.8 ± 57.6 min
MRT inf [1, 2]: 51.2 ± 28.9 h
half-life ([1]; po, p.o. administration 5 mg/kg, read-out: t1/2 (converted)): 2170 ± 1190 min
AUC(0-inf) [1, 3]: 2.47 ± 0.34 µM·h
AUC(0-t) [1, 3]: 1.88 ± 0.36 µM·h
Cmax [1, 3]: 180 ± 90 nM
Tmax [1, 3]: 160 ± 69 min
MRT inf [1, 3]: 16.5 ± 2.8 h
half-life ([1]; po, p.o. administration 50 mg/kg, read-out: t1/2 (converted)): 758 ± 90 min
CL/F ([1]; p.o. administration 5 mg/kg): 2.91 ± 0.87 mg/h/µM/kg
Vd/F ([1]; p.o. administration 5 mg/kg): 134.88 ± 26.14 mg/µM/kg
CL/F ([1]; p.o. administration 50 mg/kg): 20.52 ± 3.02 mg/h/µM/kg
Vd/F ([1]; p.o. administration 50 mg/kg): 376.76 ± 89.83 mg/µM/kg
